Measurements published in patent US8497279B2, “Treatment for discoid lupus” (Rigel Pharmaceuticals, Inc., priority 2011, dated 2013).
Structures can show the parent of a compound that is named as a salt.

Tested on: JAK1/JAK2 pathway
Assay: A549 epithelial line stimulated with IFNγ, ICAM-1 surface expression (FACS)
Type: cell-based, human
Details: A549 cells, IFNγ 75 ng/mL, 24 hours, ICAM-1 expression; read-out: Example 5 IC50
Source text: The JAK activity of the compounds described herein may also be characterized by assaying the effect of compounds I and II described herein on A549 lung epithelial cells and U937 cells. A549 lung epithelial cells and U937 cells up-regulate ICAM-1 (CD54) surface expression in response to a variety of different stimuli. Therefore, using ICAM-1 expression as readout, test compound effects on different signaling pathways can be assessed in the same cell type. Stimulation with IL-1β through the IL-1β receptor activates the TRAF6/NFκB pathway resulting in up-regulation of ICAM-1. IFNγ induces ICAM-1 up-regulation through activation of the JAK1/JAK2 pathway. The up-regulation of ICAM-1 can be quantified by flow cytometry across a compound dose curve and EC50 values are calculated. […]
A549 lung epithelial cells up-regulate ICAM-1 (CD54) surface expression in response to a variety of different stimuli. Therefore, using ICAM-1 expression as readout, compound effects on different signaling pathways can be assessed in the same cell type. […] In this example, the up-regulation of ICAM-1 by IFNγ was assessed. […]
On day three, the cell media was removed and the cells were washed with 200 μL PBS (phosphate buffered saline). […] Cells were washed with ice cold FACS buffer (PBS+2% FBS) and surface ICAM-1 expression was analyzed by flow cytometry. […]

Question: With C#CCOc1ccc(Nc2nc(Nc3ccc(C)c(S(=O)(=O)NC(=O)CC)c3)ncc2F)cc1 [VI, 5-Fluoro-N2-[4-methyl-3-(N-propionylaminosulfonyl)phenyl]-N4-[4-(2-propynyloxy)phenyl]-2,4-pyrimidinediamine Arginine Salt] as the molecule, how does the IC50 read?
Answer: The IC50 was 4.97 µM.
